# Reference: patent publication US8192962B2, “Processes for detecting toxic substances” (Daikin Industries, Ltd., priority 2001, dated 2012)
# Tested on: Metabolism protein genes
# Test: DNA chip mRNA expression in yeast, metabolism protein genes (Table 7)
# Type: cell-based, Saccharomyces cerevisiae S288C
# Procedure, shortened: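 Measured as treated-to-untreated fluorescence ratio on a full-genome yeast DNA chip. Cells (S288C, YPD, 25° C.) were exposed in log phase for two hours to one chemical, dosed to curb growth without killing.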
substance,measurement,setting,value
manganese ethylenebis(dithiocarbamate) [(8)],The level of expressed mRNA in the presence of chemical substance/The level of expressed mRNA in the absence of chemical substance,yeast gene YJR155W,10.6
same,The level of expressed mRNA in the presence of chemical substance/The level of expressed mRNA in the absence of chemical substance,yeast gene YKL035W,1.0
same,level of expressed mRNA in the presence/in the absence of chemical substance,yeast gene YKL060C,1.1
same,The level of expressed mRNA in the presence of chemical substance/The level of expressed mRNA in the absence of chemical substance,yeast gene YKL091C,1.3
same,The level of expressed mRNA in the presence of chemical substance/The level of expressed mRNA in the absence of chemical substance,yeast gene YKL104C,1.1
same,level of expressed mRNA in the presence/in the absence of chemical substance,yeast gene YKL148C,0.8
same,The level of expressed mRNA in the presence of chemical substance/The level of expressed mRNA in the absence of chemical substance,yeast gene YKL152C,1.0
same,level of expressed mRNA in the presence/in the absence of chemical substance,yeast gene YKL157W,1.1
same,The level of expressed mRNA in the presence of chemical substance/The level of expressed mRNA in the absence of chemical substance,yeast gene YKL213C,1.1
same,The level of expressed mRNA in the presence of chemical substance/The level of expressed mRNA in the absence of chemical substance,yeast gene YKL215C,1.1
same,level of expressed mRNA in the presence/in the absence of chemical substance,yeast gene YKR034W,1.5
same,The level of expressed mRNA in the presence of chemical substance/The level of expressed mRNA in the absence of chemical substance,yeast gene YLL058W,0.9
same,level of expressed mRNA in the presence/in the absence of chemical substance,yeast gene YLR006C,0.9
same,level of expressed mRNA in the presence/in the absence of chemical substance,yeast gene YLR044C,0.7
same,level of expressed mRNA in the presence/in the absence of chemical substance,yeast gene YLR056W,0.9
same,level of expressed mRNA in the presence/in the absence of chemical substance,yeast gene YLR058C,0.3
same,level of expressed mRNA in the presence/in the absence of chemical substance,yeast gene YLR081W,0.9
same,level of expressed mRNA in the presence/in the absence of chemical substance,yeast gene YLR089C,0.7
same,The level of expressed mRNA in the presence of chemical substance/The level of expressed mRNA in the absence of chemical substance,yeast gene YLR180W,0.9
same,The level of expressed mRNA in the presence of chemical substance/The level of expressed mRNA in the absence of chemical substance,yeast gene YLR273C,1.3
same,level of expressed mRNA in the presence/in the absence of chemical substance,yeast gene YLR284C,1.2
same,The level of expressed mRNA in the presence of chemical substance/The level of expressed mRNA in the absence of chemical substance,yeast gene YLR299W,1.0
same,The level of expressed mRNA in the presence of chemical substance/The level of expressed mRNA in the absence of chemical substance,yeast gene YLR300W,0.8
same,level of expressed mRNA in the presence/in the absence of chemical substance,yeast gene YLR304C,0.6
same,The level of expressed mRNA in the presence of chemical substance/The level of expressed mRNA in the absence of chemical substance,yeast gene YLR307W,1.2
same,The level of expressed mRNA in the presence of chemical substance/The level of expressed mRNA in the absence of chemical substance,yeast gene YLR348C,0.9
same,level of expressed mRNA in the presence/in the absence of chemical substance,yeast gene YLR354C,1.4
same,level of expressed mRNA in the presence/in the absence of chemical substance,yeast gene YLR372W,0.9
same,level of expressed mRNA in the presence/in the absence of chemical substance,yeast gene YML022W,1.1
same,The level of expressed mRNA in the presence of chemical substance/The level of expressed mRNA in the absence of chemical substance,yeast gene YML054C,1.5
same,The level of expressed mRNA in the presence of chemical substance/The level of expressed mRNA in the absence of chemical substance,yeast gene YML070W,1.3
same,The level of expressed mRNA in the presence of chemical substance/The level of expressed mRNA in the absence of chemical substance,yeast gene YML100W,0.7
same,The level of expressed mRNA in the presence of chemical substance/The level of expressed mRNA in the absence of chemical substance,yeast gene YMR008C,0.5
same,level of expressed mRNA in the presence/in the absence of chemical substance,yeast gene YMR011W,1.1
same,level of expressed mRNA in the presence/in the absence of chemical substance,yeast gene YMR015C,0.7
same,The level of expressed mRNA in the presence of chemical substance/The level of expressed mRNA in the absence of chemical substance,yeast gene YMR020W,1.2
same,level of expressed mRNA in the presence/in the absence of chemical substance,yeast gene YMR083W,1.1
same,The level of expressed mRNA in the presence of chemical substance/The level of expressed mRNA in the absence of chemical substance,yeast gene YMR105C,1.1
same,The level of expressed mRNA in the presence of chemical substance/The level of expressed mRNA in the absence of chemical substance,yeast gene YMR189W,0.4
same,level of expressed mRNA in the presence/in the absence of chemical substance,yeast gene YMR205C,0.7
same,level of expressed mRNA in the presence/in the absence of chemical substance,yeast gene YMR261C,0.7
same,The level of expressed mRNA in the presence of chemical substance/The level of expressed mRNA in the absence of chemical substance,yeast gene YMR271C,1.8
same,The level of expressed mRNA in the presence of chemical substance/The level of expressed mRNA in the absence of chemical substance,yeast gene YMR296C,0.5
same,level of expressed mRNA in the presence/in the absence of chemical substance,yeast gene YMR323W,0.8
same,The level of expressed mRNA in the presence of chemical substance/The level of expressed mRNA in the absence of chemical substance,yeast gene YNL012W,1.8
same,level of expressed mRNA in the presence/in the absence of chemical substance,yeast gene YNL025C,1.0
same,The level of expressed mRNA in the presence of chemical substance/The level of expressed mRNA in the absence of chemical substance,yeast gene YNL045W,0.7
same,The level of expressed mRNA in the presence of chemical substance/The level of expressed mRNA in the absence of chemical substance,yeast gene YNL104C,0.9
same,The level of expressed mRNA in the presence of chemical substance/The level of expressed mRNA in the absence of chemical substance,yeast gene YNL106C,0.8
same,The level of expressed mRNA in the presence of chemical substance/The level of expressed mRNA in the absence of chemical substance,yeast gene YNL169C,0.8
same,level of expressed mRNA in the presence/in the absence of chemical substance,yeast gene YNL192W,0.8
same,The level of expressed mRNA in the presence of chemical substance/The level of expressed mRNA in the absence of chemical substance,yeast gene YNL231C,1.5
same,The level of expressed mRNA in the presence of chemical substance/The level of expressed mRNA in the absence of chemical substance,yeast gene YNL322C,0.7
same,The level of expressed mRNA in the presence of chemical substance/The level of expressed mRNA in the absence of chemical substance,yeast gene YNL331C,13.1
same,The level of expressed mRNA in the presence of chemical substance/The level of expressed mRNA in the absence of chemical substance,yeast gene YNL332W,1.5
same,The level of expressed mRNA in the presence of chemical substance/The level of expressed mRNA in the absence of chemical substance,yeast gene YNR019W,0.7
same,The level of expressed mRNA in the presence of chemical substance/The level of expressed mRNA in the absence of chemical substance,yeast gene YNR033W,1.1
same,The level of expressed mRNA in the presence of chemical substance/The level of expressed mRNA in the absence of chemical substance,yeast gene YNR059W,1.3
same,The level of expressed mRNA in the presence of chemical substance/The level of expressed mRNA in the absence of chemical substance,yeast gene YOL058W,1.6
same,level of expressed mRNA in the presence/in the absence of chemical substance,yeast gene YOL086C,0.8
same,level of expressed mRNA in the presence/in the absence of chemical substance,yeast gene YOL108C,1.3
same,level of expressed mRNA in the presence/in the absence of chemical substance,yeast gene YOL116W,1.3
same,The level of expressed mRNA in the presence of chemical substance/The level of expressed mRNA in the absence of chemical substance,yeast gene YOL126C,0.9
same,The level of expressed mRNA in the presence of chemical substance/The level of expressed mRNA in the absence of chemical substance,yeast gene YOL153C,1.0
same,level of expressed mRNA in the presence/in the absence of chemical substance,yeast gene YOL156W,1.0
same,The level of expressed mRNA in the presence of chemical substance/The level of expressed mRNA in the absence of chemical substance,yeast gene YOL165C,17.8
same,level of expressed mRNA in the presence/in the absence of chemical substance,yeast gene YOR002W,0.9
same,level of expressed mRNA in the presence/in the absence of chemical substance,yeast gene YOR085W,0.7
same,The level of expressed mRNA in the presence of chemical substance/The level of expressed mRNA in the absence of chemical substance,yeast gene YOR099W,0.9
same,level of expressed mRNA in the presence/in the absence of chemical substance,yeast gene YOR103C,1.0
same,level of expressed mRNA in the presence/in the absence of chemical substance,yeast gene YOR108W,0.9
same,level of expressed mRNA in the presence/in the absence of chemical substance,yeast gene YOR128C,0.6
same,The level of expressed mRNA in the presence of chemical substance/The level of expressed mRNA in the absence of chemical substance,yeast gene YOR130C,0.8
same,level of expressed mRNA in the presence/in the absence of chemical substance,yeast gene YOR142W,0.8
same,level of expressed mRNA in the presence/in the absence of chemical substance,yeast gene YOR176W,1.0
same,level of expressed mRNA in the presence/in the absence of chemical substance,yeast gene YOR178C,0.9
same,level of expressed mRNA in the presence/in the absence of chemical substance,yeast gene YOR251C,1.1
same,The level of expressed mRNA in the presence of chemical substance/The level of expressed mRNA in the absence of chemical substance,yeast gene YOR336W,0.8
same,The level of expressed mRNA in the presence of chemical substance/The level of expressed mRNA in the absence of chemical substance,yeast gene YOR347C,0.8
same,level of expressed mRNA in the presence/in the absence of chemical substance,yeast gene YOR348C,0.8
same,The level of expressed mRNA in the presence of chemical substance/The level of expressed mRNA in the absence of chemical substance,yeast gene YPL017C,1.3
same,level of expressed mRNA in the presence/in the absence of chemical substance,yeast gene YPL028W,0.9
same,level of expressed mRNA in the presence/in the absence of chemical substance,yeast gene YPL057C,1.0
same,level of expressed mRNA in the presence/in the absence of chemical substance,yeast gene YPL135W,1.0
same,level of expressed mRNA in the presence/in the absence of chemical substance,yeast gene YPL148C,0.9
same,The level of expressed mRNA in the presence of chemical substance/The level of expressed mRNA in the absence of chemical substance,yeast gene YPR026W,1.0
same,level of expressed mRNA in the presence/in the absence of chemical substance,yeast gene YPR113W,0.9
same,level of expressed mRNA in the presence/in the absence of chemical substance,yeast gene YPR165W,1.0
same,The level of expressed mRNA in the presence of chemical substance/The level of expressed mRNA in the absence of chemical substance,yeast gene YPR167C,5.5
same,level of expressed mRNA in the presence/in the absence of chemical substance,yeast gene YPR183W,1.0
